# Experimental data taken from ChEMBL document CHEMBL1125808, “Studies on the macrocyclic part of the trichothecene satratoxin: partial synthesis and structure-activity relationship” (Bioorg Med Chem Lett, 1991).
# Key:
# Mus musculus [1] = species on record: Mus musculus; assay: Cytotoxicity was evaluated on mice spleen lymphocytes stimulated by Phaseolus Vulgaris Phytohemagglutininin (PHA) after 48 hours; type: functional; parameters: unit not given here
# Mus musculus [2] = species on record: Mus musculus; assay: Cytotoxicity was evaluated on mice spleen lymphocytes stimulated by Phaseolus Vulgaris Phytohemagglutininin (PHA) after 72 hours; type: functional; parameters: unit not given here
# Daudi = assay: Concentration of compound to inhibit half of cell growth in malignant human lymphocytes: Daudi lymphoma cells; type: functional, cell-based; parameters: unit not given here
# Mus musculus [3] = species on record: Mus musculus; assay: Cytotoxicity of compound was evaluated on mice spleen lymphocytes stimulated by Phaseolus Vulgaris Phytohemagglutininin (PHA) after 48 hours; type: functional
smiles,measurement,setting,value
CCOC(=O)/C=C/[C@H]1OCC/C(=C\COCc2ccccc2)[C@@H]1O[Si](C)(C)C(C)(C)C,IC50,Mus musculus [1],0.7
same,IC50,Mus musculus [2],1.4
same,IC50,Daudi,0.6
COC(=O)CC(O)[C@H]1OCC/C(=C\COCc2ccccc2)C1O[Si](C)(C)C(C)(C)C (stereo not given in full),IC50,Mus musculus [1],20
same,IC50,Mus musculus [2],20
same,IC50,Daudi,10
CCOC(=O)/C=C/[C@H]1OCC/C(=C\C(=O)OCC)[C@@H]1O[Si](C)(C)C(C)(C)C,IC50,Mus musculus [3],8.8 M ml-1
same,IC50,Mus musculus [2],17.6
same,IC50,Daudi,9.3
O=C1CC(O)[C@H]2OCC/C(=C\COCc3ccccc3)C2O1 (stereo not given in full),IC50,Mus musculus [1],8.8
same,IC50,Mus musculus [2],13
same,IC50,Daudi,3.5
CCOC(=O)/C=C/C=C/[C@H]1OCC/C(=C\C(=O)OCC)[C@@H]1O[Si](C)(C)C(C)(C)C,IC50,Mus musculus [1],0.73
same,IC50,Mus musculus [2],1.1
same,IC50,Daudi,2.2
